# Test: in vitro
# Format: cell-based
# Settings: human
# Experimental: Huh7 hepatoblastoma cells were seeded onto 96-well plates and incubated at 37° C. with 5% CO2 overnight. The plates were seeded at a cell concentration that will yield >70% confluent monolayers in each well after overnight incubation. Eight 3-fold serial dilutions of compounds were diluted in test media (MEM supplemented with 2% FBS and 50 μg/mL gentamicin). The highest test compound concentration was 50 μg/mL. 100 μL of each concentration was added to 5 test wells on the 96-well plate. Of these 5 test wells, 3 wells of each dilution were infected with dengue virus type 2, diluted in test media (approximately 2000 CCID50 per well for an MOI of 0.07). Test medium (100 μL) with no virus was added to 2 wells to represent the uninfected cytotoxicity controls. Six additional infected wells received 100 μL media alone as untreated virus controls. Further, 100 μL of media alone was added to 6 uninfected wells to serve as uninfected, untreated controls. Cultures were incubated at 37° C.+5% CO2 until >80% CPE is observed. After cytopathic effect (CPE) is observed microscopically, 0.011% neutral red dye was added for approximately 2 hours. The neutral red dye was removed and wells were rinsed once with PBS to remove residual, unincorporated dye. A 50:50 Sorensen citrate buffer/ethanol solution was added and incubated at room temperature for >30 minutes with agitation, followed by measurement of neutral red dye using a spectrophotometer at 540 nm. The resulting optical density measurement was converted to percent signal of the infected, untreated cell control normalizing to virus controls. EC50 and CC50 values were determined by linear regression analysis.
row,SMILES,CC50 [µM]
1,"CCCCCCCCCCCCCCCCCCCC[C@@H](COP(=O)(O)OC[C@@]1(C#N)O[C@@H](c2ccc3c(N)ncnn23)[C@H](O)[C@@H]1O)OCc1cc(F)cc(C#N)c1 [Compound 70, ((2R,3S,4R)-5-(4-aminopyrrolo[2,1-f][1,2,4]triazin-7-yl)-2-cyano-3,4-dihydroxytetrahydrofuran-2-yl)methyl ((S)-2-((3-cyano-5-fluorobenzyl)oxy)docosyl) hydrogen phosphate]",12
2,"CCCCCCCCCCCCCCCCC[C@@H](COP(=O)(O)OC[C@@]1(C#N)O[C@@H](c2ccc3c(N)ncnn23)[C@H](O)[C@@H]1O)OCc1cc(F)cc(C#N)c1 [Compound 74, ((2R,3S,4R)-5-(4-aminopyrrolo[2,1-f][1,2,4]triazin-7-yl)-2-cyano-3,4-dihydroxytetrahydrofuran-2-yl)methyl ((S)-2-((3-cyano-5-fluorobenzyl)oxy)nonadecyl) hydrogen phosphate]",15
3,"CCCCCCCCCCCCCCCCCCOC[C@H](COP(=O)(O)OC[C@@]1(C#N)O[C@@H](c2ccc3c(N)ncnn23)[C@H](O)[C@@H]1O)OCc1ccc(C#N)c(-n2cncn2)c1 [Compound 16, ((2R,3S,4R,5S)-5-(4-aminopyrrolo[2,1-f][1,2,4]triazin-7-yl)-2-cyano-3,4-dihydroxytetrahydrofuran-2-yl)methyl ((R)-2-((4-cyano-3-(1H-1,2,4-triazol-1-yl)benzyl)oxy)-3-(octadecyloxy)propyl) hydrogen phosphate]",24
4,"CCCCCCCCCCCCCCCCCCC[C@H](COP(=O)(O)OC[C@@]1(C#N)O[C@@H](c2ccc3c(N)ncnn23)[C@H](O)[C@@H]1O)Oc1cc(OC)c(C#N)c(OC)c1 [Compound 39, ((2R,3S,4R,5S)-5-(4-aminopyrrolo[2,1-f][1,2,4]triazin-7-yl)-2-cyano-3,4-dihydroxytetrahydrofuran-2-yl)methyl ((R)-2-(4-cyano-3,5-dimethoxyphenoxy)henicosyl) hydrogen phosphate]",14

# Test: in vitro
# Format: cell-based
# Settings: human
# Remark: another data set of the same source
# Experimental: H1-HeLa cell viability was measured using the CellTiter-Glo® Luminescent Cell Viability Assay kit (Promega, Cat #G7573) according to the manufacturer's protocol. H1-HeLa cells were maintained in Dulbecco's Modified Eagle's Medium with high glucose (Gibco, Cat #: 11995073) supplemented with 10% FBS (HyClone, Cat #: SH303396.03), 100 units/mL penicillin and 100 µg/mL streptomycin (Gibco, Cat #: 15140122). One day before compound treatment, H1-HeLa cells were seeded at […] into 96-well plates (Corning, Cat #3904) in Opti-MEM (Gibco, Cat #: 31985070) supplemented with 2% FBS, and were incubated at 37° C. in a 100% humid atmosphere containing 5% (v/v) CO2. After overnight incubation, the cells were treated with three-fold serial dilutions of the compound. At 96 hours post treatment, CellTiter-Glo reagents were added into each well and luminescence signals were recorded by an EnVision plate reader. The relative cell viability was calculated by normalizing the absorbance of the compound-treated groups to that of the DMSO-treated groups (set as 100% viability) and 10 μM puromycin treated groups (set as 0% viability). The CC50 (compound concentration for reducing 50% of cell viability) was calculated using a nonlinear regression model (four parameters).
row,SMILES,CC50 at 96 h [µM]
1,"CCCCCCCCCCCCCCCCOC[C@@H](COP(=O)(O)OC[C@@]1(C#N)O[C@@H](c2ccc3c(N)ncnn23)[C@H](O)[C@@H]1O)OCc1cc(F)cc(C#N)c1 [Compound 88, ((2R,3S,4R,5S)-5-(4-aminopyrrolo[2,1-f][1,2,4]triazin-7-yl)-2-cyano-3,4-dihydroxytetrahydrofuran-2-yl)methyl ((S)-2-((3-cyano-5-fluorobenzyl)oxy)-3-(hexadecyloxy)propyl) hydrogen phosphate]",2.21
2,"CCCCCCCCCCCCCCCCC[C@H](COP(=O)(O)OC[C@@]1(C#N)O[C@@H](c2ccc3c(N)ncnn23)[C@H](O)[C@@H]1O)OCc1cc(Cl)cc(C#N)c1 [Compound 76, ((2R,3S,4R)-5-(4-aminopyrrolo[2,1-f][1,2,4]triazin-7-yl)-2-cyano-3,4-dihydroxytetrahydrofuran-2-yl)methyl ((R)-2-((3-chloro-5-cyanobenzyl)oxy)nonadecyl) hydrogen phosphate]",6.39
3,"CCCCCCCCCCCCCCC[C@H](COP(=O)(O)OC[C@@]1(C#N)O[C@@H](c2ccc3c(N)ncnn23)[C@H](O)[C@@H]1O)OCc1cc(F)cc(C#N)c1 [Compound 80, ((2R,3S,4R,5S)-5-(4-aminopyrrolo[2,1-f][1,2,4]triazin-7-yl)-2-cyano-3,4-dihydroxytetrahydrofuran-2-yl)methyl ((R)-2-((3-cyano-5-fluorobenzyl)oxy)heptadecyl) hydrogen phosphate]",7.08
4,"CCCCCCCCCCCCCCCCCC[C@H](COP(=O)(O)OC[C@@]1(C#N)O[C@@H](c2ccc3c(N)ncnn23)[C@H](O)[C@@H]1O)OCc1cc(F)cc(C#N)c1 [Compound 84, ((2R,3S,4R,5S)-5-(4-aminopyrrolo[2,1-f][1,2,4]triazin-7-yl)-2-cyano-3,4-dihydroxytetrahydrofuran-2-yl)methyl ((R)-2-((3-cyano-5-fluorobenzyl)oxy)icosyl) hydrogen phosphate]",1.82
